“Also recorded” adds a separate entry of the source.
What was measured:
Olfr110 = target: T1, Olfr110 (Mus musculus, UniProt A2RT31); test: Luciferase assay in Hana3A cells transfected with Olfr110; type: cell-based
T1 construct: Full-length odorant receptor genes from mouse and human genomic DNAs were amplified using appropriate primers; Lucy (N); Flag (N); Rho (N); expressed in transfected cells; host or cells: Hana3A cells, co-transfected with RTP1S, pCRELuc and pRL-SV40
T1 sequence (A2RT31 1-317): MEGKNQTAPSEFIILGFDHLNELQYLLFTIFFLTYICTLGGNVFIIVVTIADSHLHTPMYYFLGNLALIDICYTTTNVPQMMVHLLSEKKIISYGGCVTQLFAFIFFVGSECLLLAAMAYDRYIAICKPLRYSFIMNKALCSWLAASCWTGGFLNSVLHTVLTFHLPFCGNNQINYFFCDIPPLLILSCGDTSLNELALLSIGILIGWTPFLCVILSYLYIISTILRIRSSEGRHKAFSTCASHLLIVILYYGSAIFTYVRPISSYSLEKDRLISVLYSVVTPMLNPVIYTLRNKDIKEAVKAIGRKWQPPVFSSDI
Method: A Dual-Glo luciferase assay system (#E2940; Promega) was used for OR ligand screening. More specifically, Hana3A cells were seeded in white polystyrene 96-well plates (#353296; BD Biosciences) one day before transfection. pCRELuc (1 μg; #219076; Agilent Technologies), pRL-SV40 (1 μg; #E2231; Promega), RTP1S (1 μg), and OR (6 μg; or Mock) vectors were transfected for 24 hours in each plate. Analysis was performed using Lipofectamine 2000 (#11668-019; Thermo Fisher Scientific) according to the manufacturer's protocols. Transfected cells were stimulated at 37° C. for 4 hours with various concentrations of diluted odorants in a CD293 medium (#11913-019; Thermo Fisher Scientific). The activity of luciferase was normalized to that of Renilla luciferase. Luminescence was measured using a SpectraMax L microplate reader (Molecular Devices).

[1] = system: Hana3A cells expressing Olfr111; test: Boyden chamber chemotaxis assay, Hana3A cells expressing Olfr111; type: cell-based; conditions: 2-PF 10, 100 and 1000 μM
Method: Chemotaxis was measured using a multi-well Boyden chamber. More specifically, a polycarbonate filter (8 μm pore; #101-8; Neuroprobe) was coated with […] fibronectin (Sigma-Aldrich) in PBS for 2 hours, and the coated filter was installed in a Boyden chamber. In addition, the bottom side of a plate was filled with serum-free DMEM containing 2-PF or a culture supernatant. Subsequently, microglia or Hana3A cells were transfected with an OR construct, and then suspended in serum-free DMEM. The microglia were kept at 37° C. for 4 hours, and the Hana3A cells for 8 hours. Cells that migrated to the bottom surface were fixed with 4% PFA, and stained with hematoxylin for 10 minutes. The migrated cells were counted under a light microscope in five randomly selected fixed […] fields (200×) using a scored eyepiece. A chemotaxis index was defined as the migrated cell number normalized against the untreated group.

[2] = Disease behavior: mouse mobility after IP injection; type: in vivo; conditions: 2-PF injection (IP), three concentrations
Method: It is known that an increase in disease behavior by microglial activation is due to an increase in secreted cytokines. To confirm the increase in disease behavior with the increase in cytokines, this experiment was conducted. The evaluation of disease behavior was accomplished after IP injection of Sup or 2-PF into the mice.
After IP injection, a mouse was placed in a space with four open sides (40×40×40 cm, white field, black wall), and the location of the mouse was recorded with a camera for 30 minutes, and then a moving distance thereof was calculated. Afterward, the data was plotted in a pseudo-color heat map using EthoVision XT (Noldus, Netherlands).

cerebral cortex = test: Cytokine mRNA in the cerebral cortex after IP injection (qRT-PCR); type: in vivo, mouse; conditions: 2-PF injection
Source text: To measure mRNA, RNA was isolated from red blood cells, microglia, astrocytes, Hana3A cells or cerebral cortex cells using a MagNa lyser (Roche Molecular Diagnostics) with TRIzol reagent (Invitrogen, Carlsbad, Calif.) according to the manufacturer's protocols. Afterward, cDNA was synthesized through reverse transcription using isolated mRNA (using PrimeScript™ 1st str and cDNA Synthesis kit-#6110; Takara Bio Inc.). This process was quantitatively measured in real time through quantitative real-time-PCR (using a LightCycler® 480 SYBR Green I Master). The measurement values were calculated using a 2-ΔΔCt method.

microglia = test: Fura-2/AM calcium imaging of microglia; type: cell-based, mouse; conditions: 2-PF 100, 300, 1000 μM
Method: Twenty-four hours after newly isolated microglia were mounted on poly-D-lysine-coated 18-mm aperture microscope cover glasses (#0111580; Marienfeld), the microglia were incubated in a superfusion chamber for 30 minutes. The chamber contained 4 μM of Fura-2/AM (Ca^2+-sensitive fluorescent dye; #F1221; Thermo Fisher Scientific) in Ringer's solution (115 mM NaCl, 2.5 mM KCl, 1 mM CaCl2, 1.5 mM MgCl2, 4.5 mM HEPES, pH 7.4) filtered through a filter with a 0.22-μm pore. After calcium staining culture, the chamber was placed under an inverted microscope and washed with Ringer's solution for 20 minutes prior to […] treatment. Here, a flow rate of the solution is 12 ml/min. Subsequently, primary microglia were treated with 300 μM ATP (#A2383; Sigma Aldrich) for 5 seconds. After washing for 5 minutes, the primary microglia were treated with a 100 μM 2-PF solution for 5 seconds. This step was accomplished with two different concentrations (300 and 1000 μM) of 2-PF solution. Finally, the microglia were treated with a 300 μM ATP solution for 5 seconds. An emitted fluorescent material was photographed every 2 seconds using a CCD camera. Pseudo-color images were converted using fractional fluorescence changes (ΔF/F, Δ[Ca^2+]i). In addition, these images show changes in intracellular calcium ions. […]

Structure (SMILES): CCCCCc1ccco1 [2-PF, 2-pentylfuran]
- mode of action at Olfr110 (Olfr110): agonist
- reactivity with Olfr110 (relative luciferase activity) (Olfr110; Hana3A cells): selective ligands; also recorded: showed the highest reactivity with Olfr110
- mobility of Olfr111 cells (chemotaxis assay) [1]: increased in mobility in a concentration-dependent manner
- mouse mobility [2]: concentration-dependent decrease
- expression level of inflammatory cytokines (Tnf, Il6, Il1b, Il10) (cerebral cortex): significantly increased
- intracellular calcium ion levels (microglia): increased according to an injection amount

From patent publication US12265087B2, “Olfactory receptor as microglia marker and use thereof” (DAEGU GYEONGBUK INSTITUTE OF SCIENCE AND TECHNOLOGY, priority 2019, dated 2025)
